Among the data in patent US8471004B2, “Bicyclic compounds” (Hoffman-La Roche Inc., priority 2009, dated 2013) are IC50 values, retold here.

The target in this test is T1, human chemokine receptor 2 isoform B (Homo sapiens, UniProt P41597).
T1 construct: host or cells: CHOK1-CCR2B-A5 (CHO-K1)
T1 sequence (P41597 1-360 isoform P41597-2): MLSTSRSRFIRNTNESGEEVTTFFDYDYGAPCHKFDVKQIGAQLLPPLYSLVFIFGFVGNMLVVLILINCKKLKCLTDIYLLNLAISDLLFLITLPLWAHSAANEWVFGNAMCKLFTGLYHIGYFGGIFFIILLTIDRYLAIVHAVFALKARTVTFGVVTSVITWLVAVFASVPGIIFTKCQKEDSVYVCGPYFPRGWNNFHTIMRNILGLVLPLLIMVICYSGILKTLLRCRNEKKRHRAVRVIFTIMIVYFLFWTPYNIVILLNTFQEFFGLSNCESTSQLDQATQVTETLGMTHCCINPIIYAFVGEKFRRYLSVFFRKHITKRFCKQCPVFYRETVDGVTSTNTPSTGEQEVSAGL
Nature of the test: Calcium mobilization assay (CHOK1-CCR2B-A5 cells, FLIPR, MCP-1 stimulated). In kind it is cell-based. Particulars: Ca mobilisation assay for CCR2, antagonist activity, 50% inhibition of specific calcium increases after 20 nM MCP-1. The procedure: CHOK1-CCR2B-A5 cells (from Euroscreen) stably overexpressing the human chemokine receptor 2 isoform B were cultured in Nutrient Hams F12 medium supplemented with 5% FBS, 100 U/ml penicillin, 100 μg/ml streptomycin, 400 μg/ml G418 and 5 μg/ml puromycin.
For the assay cells were grown overnight in 384-well black clear flat bottom polystyrene plates (Costar) at 37° C. at 5% CO2. After washing with DMEM, 20 mM Hepes, 2.5 mM probenecid, 0.1% BSA (DMEM assay buffer) cells were loaded with 4 μM Fluo-4 in the same DMEM assay buffer for 2 hours at 30° C. Excess dye was removed and cells were washed with DMEM assay buffer. 384-well compound plates were prepared with DMEM assay buffer/0.5% DMSO with or without various concentrations of test compounds. Usually compounds were tested for agonist and antagonist activity.
Test compounds were added to the assay plate and agonist activity was monitored as fluorescence for 80 seconds with a FLIPR (488 nm excitation; 510-570 nm emission; Molecular Devices). After 20-30 min. of incubation at 30° C., 20 nM MCP-1 (R&D; Roche) was added and fluorescence was monitored again for 80 seconds. Increases in intracellular calcium are reported as maximum fluorescence after agonist exposure minus basal fluorescence before exposure. Antagonist activity is indicated as inhibitor concentration required for 50% inhibition of specific calcium increases.
With `C[C@H]1C(=O)N2[C@@H](CCC(=O)N3CCC4(CC4)[C@H](O)C3)COC[C@H]2CN1C(=O)Nc1ccc(C(F)(F)F)c(Cl)c1` [Example 52, (4S,7S,9aR)—N-(3-chloro-4-(trifluoromethyl)phenyl)-4-(3-((S)-4-hydroxy-6-azaspiro[2.5]octan-6-yl)-3-oxopropyl)-7-methyl-6-oxohexahydropyrazino[2,1-c][1,4]oxazine-8(1H)-carboxamide], the IC50 came out at 14.7 nM. The same measure for `C[C@H]1C(=O)N2[C@@H](CCN3CCC4(CC4)C(F)(F)C3)COC[C@H]2CN1C(=O)Nc1ccc(Cl)c(Cl)c1` [Example 53, (4S,7S,9aR)—N-(3,4-dichlorophenyl)-4-(2-(4,4-difluoro-6-azaspiro[2.5]octan-6-yl)ethyl)-7-methyl-6-oxohexahydropyrazino[2,1-c][1,4]oxazine-8(1H)-carboxamide]: 16.7 nM. The same measure for `C[C@H]1C(=O)N2[C@@H](CCN3CCC4(CC4)[C@H](O)C3)CC[C@H]2CN1C(=O)Nc1ccc(Cl)c(Cl)c1` [Example 33, (3S,6R,8aS)-6-[2-((S)-4-Hydroxy-6-aza-spiro[2.5]oct-6-yl)-ethyl]-3-methyl-4-oxo-hexahydro-pyrrolo[1,2-a]pyrazine-2-carboxylic acid (3,4-dichloro-phenyl)-amide]: 2.7 nM; for `C[C@H]1C(=O)N2[C@@H](CCC(=O)N3CCC4(CC4)[C@H](O)C3)CO[C@@H]2CN1C(=O)/C=C/c1ccc(F)c(Cl)c1` [Example 26, (3S,6S,8aR)-7-[(E)-3-(3-Chloro-4-fluoro-phenyl)-acryloyl]-3-[3-((S)-4-hydroxy-6-aza-spiro[2.5]oct-6-yl)-3-oxo-propyl]-6-methyl-hexahydro-oxazolo[3,2-a]pyrazin-5-one]: 61.8 nM; for `C[C@H]1C(=O)N2C(CN1C(=O)Nc1cccc(C(F)(F)F)c1)OC[C@@H]2CCN1CCC2(CC2)[C@H](O)C1` (stereo partly drawn) [Example 5, (3S,6S)-3-[2-((S)-4-Hydroxy-6-aza-spiro[2.5]oct-6-yl)-ethyl]-6-methyl-5-oxo-hexahydro-oxazolo[3,2-a]pyrazine-7-carboxylic acid (3-trifluoromethyl-phenyl)-amide]: 67.9 nM. The result for `C[C@H]1C(=O)N2[C@@H](CCC(=O)N3CCC4(CC4)[C@H](O)C3)CO[C@H]2CN1C(=O)/C=C/c1ccc(F)c(Cl)c1` [Example 27, (3S,6S,8aS)-7-[(E)-3-(3-Chloro-4-fluoro-phenyl)-acryloyl]-3-[3-((S)-4-hydroxy-6-aza-spiro[2.5]oct-6-yl)-3-oxo-propyl]-6-methyl-hexahydro-oxazolo[3,2-a]pyrazin-5-one] reads 49.4 nM; that for `C[C@H]1C(=O)N2[C@@H](CCN3CCC4(CC4)[C@H](O)C3)CO[C@@H]2CN1C(=O)Nc1ccc(F)c(Cl)c1` [Example 7, (3S,6S,8aR)-3-[2-((S)-4-hydroxy-6-aza-spiro[2.5]oct-6-yl)-ethyl]-6-methyl-5-oxo-hexahydro-oxazolo[3,2-a]pyrazine-7-carboxylic acid (3-chloro-4-fluoro-phenyl)-amide], 25 nM. For `C[C@H]1C(=O)N2[C@H](CCN3CCC4(CC4)[C@H](O)C3)COC[C@@H]2CN1C(=O)Nc1ccc(Cl)c(Cl)c1` [Example 40, (4R,7S,9aS)-4-[2-((S)-4-Hydroxy-6-aza-spiro[2.5]oct-6-yl)-ethyl]-7-methyl-6-oxo-hexahydro-pyrazino[2,1-c][1,4]oxazine-8-carboxylic acid (3,4-dichloro-phenyl)-amide], the IC50 was 340 nM. The same measure for `C[C@H]1C(=O)N2[C@@H](CCN3CCC4(CC4)C(F)(F)C3)COC[C@H]2CN1C(=O)Nc1ccc(C(F)(F)F)c(Cl)c1` [Example 55, (4S,7S,9aR)—N-(3-chloro-4-(trifluoromethyl)phenyl)-4-(2-(4,4-difluoro-6-azaspiro[2.5]octan-6-yl)ethyl)-7-methyl-6-oxohexahydropyrazino[2,1-c][1,4]oxazine-8(1H)-carboxamide]: 34.3 nM; for `C[C@H]1C(=O)N2[C@@H](CCCN3CCC4(CC4)[C@H](O)C3)CO[C@]2(C)CN1C(=O)Nc1ccc(Cl)c(Cl)c1` [Example 22, (3S,6S,8aR)-3-[3-((S)-4-hydroxy-6-aza-spiro[2.5]oct-6-yl)-propyl]-6,8a-dimethyl-5-oxo-hexahydro-oxazolo[3,2-a]pyrazine-7-carboxylic acid (3,4-dichloro-phenyl)-amide]: 27.4 nM; for `C[C@H]1C(=O)N2[C@@H](CCN3CCC4(CC4)[C@H](O)C3)COC[C@H]2CN1C(=O)Nc1ccc(C(F)(F)F)c(Cl)c1` [Example 32, (4S,7S,9aR)-4-[2-((S)-4-Hydroxy-6-aza-spiro[2.5]oct-6-yl)-ethyl]-7-methyl-6-oxo-hexahydro-pyrazino[2,1-c][1,4]oxazine-8-carboxylic acid (3-chloro-4-trifluoromethyl-phenyl)-amide]: 2.1 nM. For the compound `C[C@H]1C(=O)N2[C@@H](CCC(=O)N3CCC4(CC4)[C@H](O)C3)CO[C@@H]2CN1C(=O)Nc1ccc(Cl)c(Cl)c1` [Example 35, (3S,6S,8aR)-3-[3-((S)-4-Hydroxy-6-aza-spiro[2.5]oct-6-yl)-3-oxo-propyl]-6-methyl-5-oxo-hexahydro-oxazolo[3,2-a]pyrazine-7-carboxylic acid (3,4-dichloro-phenyl)-amide], the concentration for half-maximal inhibition (IC50) worked out at 5.7 nM. The result for `C[C@H]1C(=O)N2[C@@H](CCCN3CCC4(CC4)[C@H](O)C3)CC[C@H]2CN1C(=O)Nc1ccc(Cl)c(Cl)c1` [Example 41, (3S,6S,8aS)-6-[3-((S)-4-Hydroxy-6-aza-spiro[2.5]oct-6-yl)-propyl]-3-methyl-4-oxo-hexahydro-pyrrolo[1,2-a]pyrazine-2-carboxylic acid (3,4-dichloro-phenyl)-amide] reads 3.3 nM; that for `C[C@H]1C(=O)N2C(CN1C(=O)Nc1ccc(Cl)c(Cl)c1)OCCC[C@H]2CN1CCC2(CC2)[C@H](O)C1` (stereo partly drawn) [Example 28, (3S,5S)-5-((S)-4-Hydroxy-6-aza-spiro[2.5]oct-6-ylmethyl)-3-methyl-4-oxo-octahydro-9-oxa-2,4a-diaza-benzocycloheptene-2-carboxylic acid (3,4-dichloro-phenyl)-amide], 3.7 nM.

Turning to `C[C@H]1C(=O)N2[C@@H](CCN3CCC4(CC4)[C@H](O)C3)CO[C@H]2CN1C(=O)Nc1ccc(F)c(Cl)c1` [Example 6, (3S,6S,8aS)-3-[2-((S)-4-Hydroxy-6-aza-spiro[2.5]oct-6-yl)-ethyl]-6-methyl-5-oxo-hexahydro-oxazolo[3,2-a]pyrazine-7-carboxylic acid (3-chloro-4-fluoro-phenyl)-amide], the IC50 was 72 nM. The same measure for `C[C@H]1C(=O)N2[C@@H](CCN3CCC4(CC4)[C@H](O)C3)COC[C@H]2CN1C(=O)Nc1ccc(Cl)c(Cl)c1` [Example 31, (4S,7S,9aR)-4-[2-((S)-4-Hydroxy-6-aza-spiro[2.5]oct-6-yl)-ethyl]-7-methyl-6-oxo-hexahydro-pyrazino[2,1-c][1,4]oxazine-8-carboxylic acid (3,4-dichloro-phenyl)-amide]: 1.9 nM. The result for `C[C@H]1C(=O)N2[C@@H](CCCN3CCC(F)(F)CC3)CC[C@H]2CN1C(=O)Nc1ccc(Cl)c(Cl)c1` [Example 46, (3S,6S,8aS)-6-[3-(4,4-Difluoro-piperidin-1-yl)-propyl]-3-methyl-4-oxo-hexahydro-pyrrolo[1,2-a]pyrazine-2-carboxylic acid (3,4-dichloro-phenyl)-amide] reads 26.4 nM; that for `C[C@H]1C(=O)N2[C@@H](CCCN3CCC4(CC4)[C@H](O)C3)COC2(C)CN1C(=O)Nc1ccc(Cl)c(Cl)c1` (stereo partly drawn) [Example 12, (3S,6S)-3-[3-((S)-4-Hydroxy-6-aza-spiro[2.5]oct-6-yl)-propyl]-6,8a-dimethyl-5-oxo-hexahydro-oxazolo[3,2-a]pyrazine-7-carboxylic acid (3,4-dichloro-phenyl)-amide], 12 nM. The result for `C[C@H]1C(=O)N2[C@H](CCN3CCC4(CC4)[C@H](O)C3)CCC[C@@H]2CN1C(=O)Nc1ccc(Cl)c(Cl)c1` [Example 39, (3S,6S,9aR)-6-[2-((S)-4-Hydroxy-6-aza-spiro[2.5]oct-6-yl)-ethyl]-3-methyl-4-oxo-octahydro-pyrido[1,2-a]pyrazine-2-carboxylic acid (3,4-dichloro-phenyl)-amide] reads 135 nM; that for `C[C@H]1C(=O)N2[C@@H](CCC(=O)N3CCC4(CC4)[C@H](O)C3)CO[C@H]2CN1C(=O)Nc1ccc(C(F)(F)F)c(Cl)c1` [Example 25, (3S,6S,8aS)-3-[3-((S)-4-Hydroxy-6-aza-spiro[2.5]oct-6-yl)-3-oxo-propyl]-6-methyl-5-oxo-hexahydro-oxazolo[3,2-a]pyrazine-7-carboxylic acid (3-chloro-4-trifluoromethyl-phenyl)-amide], 20 nM.
